Measurements as given in PMC10724246 (Nature Communications, 2023).
No end group written: not given here.

Assays:
αWD40 domain (α-COPI) = molecular target: T1, αWD40 domain (α-COPI) (Schizosaccharomyces pombe, UniProt Q96WV5); experiment: Biolayer interferometry (BLI) of S tail peptides with wild-type αWD40; assay type: binding, S. pombe
T1 construct: strep-tag (C); made in house; host or cells: Expi293 cells
T1 sequence (Q96WV5 1-327 limits assumed): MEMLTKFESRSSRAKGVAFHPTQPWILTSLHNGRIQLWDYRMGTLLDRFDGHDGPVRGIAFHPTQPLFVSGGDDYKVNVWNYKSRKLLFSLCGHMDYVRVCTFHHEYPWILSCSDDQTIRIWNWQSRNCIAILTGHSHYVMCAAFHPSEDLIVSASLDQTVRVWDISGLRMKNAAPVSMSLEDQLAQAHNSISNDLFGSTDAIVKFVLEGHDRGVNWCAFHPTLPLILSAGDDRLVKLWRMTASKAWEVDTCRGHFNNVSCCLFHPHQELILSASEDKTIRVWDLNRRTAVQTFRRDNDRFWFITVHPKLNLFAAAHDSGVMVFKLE
Experimental: Recombinant expression and purification of S. pombe αWD40 and S. cerevisiae β‘WD40 domains (both wild type and mutants) were carried out as described[43],[72],[75]. Briefly, αWD40 with a C-terminal strep-tag was expressed and purified from Expi293 cells using polyethyleneimine (PEI). The clarified cell lysate was subjected to affinity chromatography followed by size-exclusion chromatography (SEC) on a preparative grade Superdex-75 column.
BLI assays with biotinylated S peptides from Biomatik (USA) and purified coatomer WD40 domains were carried out as described. […] S peptides were immobilized on streptavidin (SA) biosensors (FortéBio, USA). Measurements were performed on the Octet RED96 system (FortéBio, USA). Data acquisition and data analysis were performed using Data Acquisition 11.1 suite and FortéBio Data Analysis 11.1 software suite respectively. All experiments were performed at 25 °C and 1000 rpm shake speed. Appropriate sensor and loading controls were applied.

WD40 = settings: peer review response; ref Dey et al Communications Biology 2022; cited from earlier work
From the text: page 26: dynamics/conformations of the tail. I see no need to perform experiments, but maybe this has been done (or other mutants been tested meanwhile)? Please comment at least! Response 3.21: We thank the reviewer for raising this point. We reported this BLI experiment in our previous publication, Dey et al Communications Biology 2022. […]

yeast β'WD40 domain = settings: published value, Supplementary Table S6; ref Ma & Goldberg, EMBO J 2013; cited from earlier work
yeast αWD40 domain = settings: published value, Supplementary Table S6; ref Ma & Goldberg, EMBO J 2013; cited from earlier work
[1] = molecular target: T2, alpha-COP WD40 (Schizosaccharomyces pombe), Q96WV5; settings: modification not given
T2 chain: T1 sequence (Q96WV5 1-327 limits assumed)

[2] = immobilized biotinylated peptide, αWD40 analyte, pH 6.5, 25 °C
[3] = immobilized biotinylated peptide, αWD40 analyte, pH 7.0, 25 °C

Molecule: GVKLHYT (amidated)
- binding to αWD40 (in words) (αWD40 domain (α-COPI); Fig. 2M, listed as amidated wild-type S heptapeptide): Loss of αWD40 binding

Molecule: GVKLHYA
- WD40 binding in BLI assays (in words) (WD40): modest enhancement

Molecule: GVKLHYE-NH2 [GVKLHYE (amidated)]
- koff (αWD40 domain (α-COPI); [2]): 0.88 ± 0.02 s⁻¹
- kon (αWD40 domain (α-COPI); [2]): 706.2 ± 56.3 10^3/Ms

Molecule: CC(C)C[C@H](NC(=O)[C@H](CCCCN)NC(=O)[C@@H](NC(=O)CNC(=O)[C@H](CCCCN)NC(=O)[C@H](CC(C)C)NC(=O)[C@@H](NC(=O)[C@@H]1CCCN1C(=O)[C@H](CCC(=O)O)NC(=O)[C@H](CO)NC(=O)[C@H](CC(=O)O)NC(=O)[C@H](CC(=O)O)NC(=O)[C@H](CCC(=O)O)NC(=O)[C@H](CC(=O)O)NC(=O)[C@H](Cc1ccccc1)NC(=O)[C@H](CCCCN)NC(=O)[C@H](CS)NC(=O)[C@H](CS)NC(=O)CCCC[C@@H]1SC[C@@H]2NC(=O)N[C@@H]21)C(C)C)C(C)C)C(=O)N[C@@H](Cc1c[nH]cn1)C(=O)N[C@@H](Cc1ccc(O)cc1)C(=O)N[C@@H](CCC(=O)O)C(=O)O
- Kd (αWD40 domain (α-COPI); Equilibrium KD, immobilized biotinylated peptide, αWD40 analyte, pH 7.0, 25 °C): 100 ± 2 nM
- koff (αWD40 domain (α-COPI); [2]): 0.0037 ± 0.0002 s⁻¹
- kon (αWD40 domain (α-COPI); [2]): 59.9 ± 1.3 10^3/Ms
- koff (αWD40 domain (α-COPI); [3]): 0.003 ± 0.0002 s⁻¹
- kon (αWD40 domain (α-COPI); [3]): 60.8 ± 1.3 10^3/Ms

Molecule: R-R-S-F-I-D-E-K-K-M-P (RRSFIDEKKMP)
- Kd (yeast β'WD40 domain): 49 ± 2.2 µM
- Kd (yeast αWD40 domain): 64.5 ± 5.4 µM

Molecule: GVKLHYT [Spike tail heptapeptide]
- Kd [1]: 1400 nM
